One block for each compound: values may come before it.
Experiments:
[1] = system: H1299 (Non small cell lung carcinoma cell line); assay: In vitro cell proliferation, Assay Protocol II (cell proliferation index, fluorescent membrane marker, flow cytometry); assay type: cell-based; details: Homo sapiens, NCI-H1299, as measured by Assay Protocol II
Procedure: In a second assay to determine the inhibition of cell proliferation by a compound of the invention, cell proliferation of the cell line of interest was measured by a cell proliferation index assay using Fluofarma® based technology. This assay is based on the dilution rate of a fluorescent membrane marker, which is a direct function of the number of cell divisions. Briefly, the assay is performed by loading the cells with a non-toxic fluorescent phospholipid analog before the seeding. […] Flow cytometry analysis of the fluorescent probe is performed after the loading of the cells both prior to, as well as after treatment with various concentrations of the test compound. The dilution rate of the fluorescent probe at the single cell level is directly correlated to the number of cell divisions.

PKM2, human recombinant = target: T1, PKM2, human recombinant (Homo sapiens, UniProt P14618); assay: PKM2 enzymatic activity assay (Kinase-Glo Plus luminescence); assay type: biochemical; details: PKM2 activation; 0.1 nM PKM2, 0.1 mM ADP, 0.5 mM PEP, room temperature, 1 hour
T1 construct: purchased BPS 50295
Procedure: PKM2 performs the following enzymatic reaction, where the PKM2 substrates, PEP (phosphoenolpyruvate) and ADP, are converted to pyruvate and ATP as follows: PEP+ADP→Pyruvate+ATP. All of the enzymatic reactions were conducted in duplicates at room temperature for 1 hour in a 50 μL mixture containing:
PKM2 assay buffer (50 mM Immidazole, pH 7.2; 7 mM MgCl2; 50 mM KCl; 0.01% Tween; and 0.05% BSA), 0.1 mM ADP, 0.5 mM PEP, 0.1 nM PKM2 enzyme (PKM2, human recombinant (BPS catalog number 50295)) and the indicated test compound.
Fructose 1,6 biphosphate, (FBP (Sigma)) was used as a positive control for activation at concentration of 0.5 mM. After enzymatic reactions, 50 μL of Kinase-Glo® Plus reagent (Promega kit) was added to each well and luminescence was measured using a BioTek Synergy™ 2 microplate reader.
PKM2 activity assays were performed in duplicates at each concentration. The luminescence data were analyzed using the computer software, GraphPad PRISM®. In the absence of the compound, the luminescence was defined as 0% activity. The percent activity in the presence of each compound was calculated according to the following equation: % Activity=[(L−Lb)/(Lt−Lb)−1]×100% where L=the luminescence in the presence of the test compound, Lb=the luminescence in the absence of PKM2, and Lt=the luminescence intensity in the absence of the test compound. The % activity values versus a series of compound concentrations were plotted using non-linear regression analysis of Sigmoidal dose-response curve generated with the equation Y=B+(T−B)/1+10^((LogEC50−X)×Hill Slope), where Y=percent activity, B=minimum percent activity, T=maximum percent activity, X=logarithm of compound and Hill Slope=slope factor or Hill coefficient. The EC50 value was determined for the indicated compounds as the concentration causing a half-maximal percent activity.

[2] = system: H1299 (Non small cell lung carcinoma cell line); assay: In vitro cell proliferation, Assay Protocol I (CellTiterGlo); assay type: cell-based; details: Homo sapiens, NCI-H1299, 96 total hours of culture
Procedure: (§1) Growth inhibitory activity against the human tumor cell lines of compounds of the invention was determined using Promega's CellTiterGlo® assay. The cell lines of interest were placed in a 96-well microculture plate (Costar® white, flat bottom #3917) in a total volume of 90 μL/well. After 24 hours of incubation in a humidified incubator at 37° C. with 5% CO2 and 95% air, 10 μL of serially diluted test compounds in growth medium were added to each well. After 96 total hours of culture in a CO2 incubator, the plated cells and CellTiter-Glo® (Promega # G7571) reagents were brought to room temperature to equilibrate for 30 minutes. 100 μL of CellTiter-Glo® reagent was added to each well. The plate was shaken for 2 minutes and then left to equilibrate for 10 minutes before reading luminescence on the Tecan GENios microplate reader.
(§2) Percent inhibition of cell growth was calculated relative to untreated control wells. All tests were performed in triplicate for each concentration level. The IC50 value for the test compounds was estimated using Prism 3.03 by curve-fitting the data.

[3] = system: HepG2 cancer cells (hepatocellular carcinoma cells); assay: Bioenergetic study, XF24 analyzer (OCR and ECAR); assay type: cell-based; details: HepG2 cells treated at 100 μM, recorded over an 8 hour period; FIG. 2
Procedure: Bioenergetic studies were performed using XF24 analyzer (Seahorse Bioscience). Oxygen Consumption Rate (OCR), a measure of mitochondrial oxydative phosphorylation, and Extra-Cellular Acidification Rate (ECAR), which represents glycolysis, were recorded over an 8 hour period for cells treated with various test compounds at 100 μM.

[4] = system: HT-29 (Colorectal cancer cell line); assay: In vitro cell proliferation, Assay Protocol I (CellTiterGlo); assay type: cell-based; details: Homo sapiens
Procedure: as §1, §2

[5] = system: HeLa (Cervical cancer cell line); assay: as above; assay type: cell-based; details: Homo sapiens
Procedure: as §1, §2

[6] = system: 786-O (Renal cancer cell line); assay: as above; assay type: cell-based; details: Homo sapiens, 786-0
Procedure: as §1, §2

[7] = system: A549 (Non-small cell lung carcinoma cell line); assay: as above; assay type: cell-based; details: Homo sapiens
Procedure: as §1, §2

[8] = system: Colo-205 (Colorectal cancer cell line); assay: as above; assay type: cell-based; details: Homo sapiens
Procedure: as §1, §2

[9] = Cell proliferation and apoptosis over time (cell counts, caspase 3/7 assay), FIG. 3; assay type: cell-based
Procedure: Additionally, the effect of 5-((2,3-dihydrobenzo[b][1,4]dioxin-6-yl)sulfonyl)-2-methyl-1-(methylsulfonyl)indoline on cell proliferation and apoptosis was measured and the results are shown in FIG. 3.

T1 sequence (P14618 whole entry): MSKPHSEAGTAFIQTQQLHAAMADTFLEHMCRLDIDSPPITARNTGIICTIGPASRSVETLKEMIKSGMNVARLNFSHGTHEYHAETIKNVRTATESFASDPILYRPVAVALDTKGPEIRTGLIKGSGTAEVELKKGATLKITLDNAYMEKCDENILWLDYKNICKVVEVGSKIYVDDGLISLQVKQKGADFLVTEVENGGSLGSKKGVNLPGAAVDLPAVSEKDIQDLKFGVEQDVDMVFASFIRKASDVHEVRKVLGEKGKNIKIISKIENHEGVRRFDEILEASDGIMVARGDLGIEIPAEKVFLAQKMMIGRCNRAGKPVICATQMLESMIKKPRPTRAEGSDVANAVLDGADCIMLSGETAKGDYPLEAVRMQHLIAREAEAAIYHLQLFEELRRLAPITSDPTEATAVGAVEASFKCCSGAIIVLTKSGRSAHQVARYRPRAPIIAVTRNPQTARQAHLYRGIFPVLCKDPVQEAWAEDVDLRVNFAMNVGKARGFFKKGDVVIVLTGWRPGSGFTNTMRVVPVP

EC50 (PKM2, human recombinant): 1 to 10 µM
SMILES: CS(=O)(=O)N1CCCc2cc(S(=O)(=O)c3ccc4c(c3)OCCO4)ccc21 [Compound 7A]

IC50 [2]: < 20 µM
SMILES: CS(=O)(=O)N1CCc2cc(S(=O)(=O)c3ccc4c(c3)OCCO4)ccc21 [Compound 11A, 5-((2,3-dihydrobenzo[b][1,4]dioxin-6-yl)sulfonyl)-1-(methylsulfonyl)indoline]

EC50 (PKM2, human recombinant): 1 to 10 µM
IC50 [4]: > 100 µM
IC50 [5]: < 60 µM
IC50 [6]: < 30 µM
IC50 [2]: < 10 µM
IC50 [7]: < 50 µM
IC50 [8]: < 30 µM
IC50 [1]: < 40 µM
SMILES: CC1Cc2cc(S(=O)(=O)c3ccc4c(c3)OCCO4)ccc2N1S(C)(=O)=O (stereo not drawn) [Compound 2A, 5-((2,3-dihydrobenzo[b][1,4]dioxin-6-yl)sulfonyl)-2-methyl-1-(methylsulfonyl)indoline]
Metabolic activity (OCR and ECAR) [3]: less metabolically active
Effect on cell proliferation (cell counts) ([9]; FIG. 3, as a function of time after treatment): induces a period of growth arrest
Cells that underwent apoptosis (caspase 3/7 assay) ([9]; by day 15, FIG. 3): up to 60%

EC50 (PKM2, human recombinant): 10 to 100 µM
SMILES: CC1Cc2cc(S(=O)(=O)Nc3ccc4c(c3)OCCO4)ccc2N1S(C)(=O)=O (stereo not drawn) [Compound 23A]

EC50 (PKM2, human recombinant): 1 to 10 µM
SMILES: C[C@H]1Cc2cc(S(=O)(=O)c3ccc4c(c3)OCCO4)ccc2N1S(=O)(=O)Cc1ccccc1 [Compound 13A]

EC50 (PKM2, human recombinant): 1 to 10 µM
SMILES: CC(=O)N1c2ccc(S(=O)(=O)c3ccc4c(c3)OCCO4)cc2CC1C (stereo not drawn) [Compound 4A]

The next lines start with the compound.

SMILES: CS(=O)(=O)N1Cc2ccc(S(=O)(=O)c3ccc4c(c3)OCCO4)cc2C1 [Compound 6A, 5-((2,3-dihydrobenzo[b][1,4]dioxin-6-yl)sulfonyl)-2-(methylsulfonyl)isoindoline]
IC50 [1]: < 20 µM

SMILES: CCN(c1ccc(S(=O)(=O)c2ccc3c(c2)OCCO3)cc1)S(C)(=O)=O [Compound 24A]
EC50 (PKM2, human recombinant): 10 to 100 µM

SMILES: CCN(c1ccc(S(=O)(=O)c2ccc3c(c2)OCCO3)c(C)c1)S(C)(=O)=O [Compound 12A]
EC50 (PKM2, human recombinant): 1 to 10 µM

SMILES: CC(C)N(c1ccc(S(=O)(=O)c2ccc3c(c2)OCCO3)cc1)S(C)(=O)=O [Compound 10A]
EC50 (PKM2, human recombinant): 1 to 10 µM

SMILES: Cc1cn(S(C)(=O)=O)c2ccc(S(=O)(=O)c3ccc4c(c3)OCCO4)cc12 [Compound 21A]
EC50 (PKM2, human recombinant): 1 to 10 µM
